This assay in a line: In vitro inhibitory activity in the fMLP-stimulated phospholipase (PLD) assay.

Each structure is given as a SMILES string. Some results are limits rather than exact numbers.

In the case of `Oc1cccc2c1[C@@H](O)[C@H]1O[C@H]1C21Oc2cccc3cccc(c23)O1`, the IC50 was found to be 24 µM.
As for `CC(=O)Oc1c(Cl)ccc2c1[C@@H](OC(C)=O)[C@H]1O[C@H]1C21Oc2cccc3cccc(c23)O1`, the figure is more than 50 µM.
As for `CC(=O)Oc1cccc2c1[C@@H](OC(C)=O)[C@H]1O[C@H]1C21Oc2cccc3cccc(c23)O1`, the figure is 17 µM.
The figure for `Oc1c(Cl)ccc2c1[C@@H](O)[C@H]1O[C@H]1C21Oc2cccc3cccc(c23)O1` is 19 µM.

These data come from ChEMBL document CHEMBL1150468, “Sch 53823 and Sch 53825, novel fungal metabolites with phospholipase D inhibitory activity” (Bioorg Med Chem Lett, 1996).
